Experimental data: BigSolDB 2.1

Settings: in water

O=S(=O)([O-])c1cccc2ccccc12.[Na+]
Settings	solubility (mole fraction)
278.15 K	0.0107
283.15 K	0.0109
288.15 K	0.0113
293.15 K	0.0119
298.15 K	0.0126
303.15 K	0.0134
308.15 K	0.0141
313.15 K	0.0152
318.15 K	0.0169
323.15 K	0.0192
